Measurements taken from PMC11947619, “Molecular mechanism of Mad2 conformational conversion promoted by the Mad2‐interaction motif of Cdc20” (Protein Science : A Publication of the Protein Society, 2025).

Columns and labels:
[1] = biological target: T1, O‐Mad2^R133A (Homo sapiens, UniProt Q13257, R133A); conditions: 100 μM O-Mad2^R133A, two-fold molar excess peptide, 25°C, 20 mM HEPES pH 7.0, 100 mM NaCl, 1 mM TCEP, 5% D2O; Trp75/Trp167 indole NH reporters; 12 min per spectrum; ref Fischer et al., [2022]; cited from earlier work
T1 construct: unable to collect equivalent data for full‐length O‐Mad2^R133A; His6-DoubleStrep-TEV (N); made in house
T1 sequence (Q13257 whole entry R133A): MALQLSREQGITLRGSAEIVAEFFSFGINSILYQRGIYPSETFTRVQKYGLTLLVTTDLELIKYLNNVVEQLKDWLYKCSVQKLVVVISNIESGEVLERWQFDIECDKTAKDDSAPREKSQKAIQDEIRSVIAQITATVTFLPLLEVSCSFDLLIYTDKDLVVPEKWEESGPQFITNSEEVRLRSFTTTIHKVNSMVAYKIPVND
Protocol: In contrast, conversion took ~24 h in the absence of Cdc20^MIM‐111‐138 peptide (Fischer et al., [2022]) (Figures 2c and ...

[2] = biological target: T2, O‐Mad2^LL (Homo sapiens, UniProt Q13257, A115G/DEL109-114/P116S/R117G); experiment: Time-resolved NMR: conversion / binding with O-Mad2^LL (loop-less); format: biochemical; conditions: two-fold molar excess peptide, 25°C
T2 construct: His6-DoubleStrep-TEV (N); made in house
T2 sequence (Q13257 with tags, fused parts or gaps DEL109-114/A115G/P116S/R117G): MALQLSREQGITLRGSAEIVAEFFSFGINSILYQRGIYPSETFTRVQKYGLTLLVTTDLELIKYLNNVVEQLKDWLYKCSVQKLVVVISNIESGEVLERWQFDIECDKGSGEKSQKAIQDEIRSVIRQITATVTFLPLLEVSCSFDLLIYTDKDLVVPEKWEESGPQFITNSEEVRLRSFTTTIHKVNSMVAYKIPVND
Protocol: FIGURE 5 The dynamic β5‐αC loop and C‐terminal residues in O‐Mad2 modulate Mad2 conversion. The O‐ to C‐Mad2 conversion is slowed when the highly dynamic β5‐αC loop is truncated (O‐Mad2^LL) and eliminated in the absence of the C‐terminal ten residues (O‐Mad2^∆C10). Using the side chain resonances of Trp75 and Trp167 as reporters, Mad2 conversion was traced in a 24 h time course at 25°C. Cdc20^MIM‐111‐138 peptides were added at two‐fold molar excess to Mad2 (100 μM). Severe line broadening was observed during the conversion of O‐Mad2^LL, most likely due to dimerization of O‐Mad2^LL with the newly converted C‐Mad2^LL. NMR data for O‐Mad2^R133A with Cdc20^MIM‐111‐138 shown for comparison are from Fischer et al. ([2022]).
The cloning of human wild‐type Mad2 and the mutant Mad2^R133A by the USER® method (NEB) into the pRSFDuet‐1 vector (71341‐3, Sigma‐Aldrich) with a His6‐DoubleStrep‐TEV tag at its N‐terminus was described previously (Fischer et al., [2022]). For this study, Mad2 mutants were generated as follows. The Mad2^LL expression construct was generated from the wild‐type Mad2 expression vector (Fischer et al., [2022]) by replacing residues 109–117 (TAKDDSAPR) with GSG. Mad2^ΔC10 and Mad2^Δβ7/β8 were modified from wild‐type Mad2 expression construct by deleting residues 196–205 and 166–205, respectively. Mad2^LL/R133A was modified by substituting Ala for Arg133 from the Mad2^LL expression construct. Mad2^LL/ΔC10 was modified from Mad2^LL by deleting residues 196–205. Mad2^L13A/R133A was generated from the Mad2^R133A mutant. Site‐directed mutagenesis of Mad2 was completed using the QuikChangeTM Lightning Site‐Directed Mutagenesis Kit (Agilent) developed by Stratagene Inc. (La Jolla, CA).
All peptides were synthesized by Cambridge Research Biochemicals, UK. Peptides were dialyzed into 20 mM HEPES, pH 7.0, 100 mM NaCl, and 1 mM TCEP for NMR experiments. […]
Mad2LL (grey), Mad2∆C10 (green) and Mad2LL/∆C10 (purple). […] 15N{1H}‐ heteronuclear NOE were measured at 298 K. Regions that are highly dynamic are highlighted in yellow. e. […]

Question: With “EHQKAWALNLNGFDVEEAKILRLSGKPQ [Cdc20^MIM‐111‐138, Cdc20^MIM peptide spanning Cdc20 residues 111–138]” as the sequence, how does the “time to complete Mad2 conversion” value [1] read?
Answer: Its value is “less than 30 min”.

Question: What about the “binding to Mad2^LL, early spectra” value ([2]; HSQC, spectra collected within 15 min) of the same sequence?
Answer: The value was “no binding”.

Question: And the “slowing of conversion relative to O-Mad2^R133A with Cdc20^MIM-111-138” value ([2]; O-Mad2^LL 100 μM)?
Answer: The value was 8 times.

Question: What about the “time for conversion of O-Mad2^LL to C-Mad2^LL:Cdc20^MIM” value ([2]; O-Mad2^LL 100 μM, Trp75/Trp167 reporters) of the same sequence?
Answer: Its value is ~ 250 min.
